Patent publication US20100204248A1, “MEDICAMENTS AND METHODS FOR INHIBITION OF NON-OCULAR SCARRING” (Renovo Limited, priority 2007, published 2010)

Experiments:
incisional wounds = assay: Incisional wound healing model, wounds harvested three days post-wounding; assay type: in vivo, Sprague Dawley rats
Description: (§1) At day 0, male Sprague Dawley rats (200-250 g) were anaesthetised, shaved and wound sites were marked according to the Renovo rat incisional wounding template (2 wound model, 2×1 cm wounds, 5 cm from the base of the skull and 1 cm from the midline in each rat). One hundred microlitres of 6-mercaptopurine at 1 ng, 10 ng or 1000 ng in phosphate buffered saline (PBS, pH 7.2; GIBCO BRL, Cat. #20012-019) containing 5% ethanol was injected intradermally at the wound sites. The intradermal injections caused the formation of a raised bleb, which was then immediately incised to form 1 cm long experimental wounds. Separate groups of rats used as naïve controls and diluent controls. Naïve control animals were wounded without treatment, whilst diluent control animals were injected with 100 μl of the PBS/ethanol mixture prior to wounding. All treated or diluent control wounds were re-injected again 1 day post-wounding with the appropriate treatment via injection of 50 μl to each of the two margins of the 1 cm wound. Wounds from the treated, naïve control and diluent control animals were all harvested at day 70 post-wounding.
Treated and control incisional wounds were created as described above, to allow assessment of the effects of NR4A agonists, such as 6-mercaptopurines, on wound healing. Wounds from the treated, naïve control and diluent control animals were all harvested at three days post-wounding.
The wounds were photographed after wounding, prior to re-injection on day one and on the day of harvest. Day three incisional or excisional wounds were excised from the experimental rats (incorporating a small amount of surrounding normal tissue). […] The fixed tissue was then processed for wax histology, stained using Masson's trichrome, and wound width assessed using image analysis software. Width of incisional wounds was measured at a point mid-way through the depth of the wound, whereas width of excisional wounds was measured at the top of the wounds.

NR4A3 = NR4A3 (Homo sapiens, UniProt Q92570); settings: cited from earlier work
NR4A2 = NR4A2 (Homo sapiens, UniProt P43354); settings: cited from earlier work
[1] = system: full thickness cutaneous incisional wounds; assay: Scarring model: rat incisional wounds, macroscopic and microscopic VAS scar assessment at day 70; assay type: in vivo, Sprague Dawley rats; settings: for macroscopic appearance of scars (macroscopic VAS): before wounding and 1 day post-wounding; for macroscopic appearance of scars (macroscopic VAS) / microscopic appearance of scars (microscopic VAS): vs naïve control or diluent control
Description: as §1, with “The intradermal injections caused the formation of a raised bleb, which was then immediately incised to form 1 cm long experimental wounds.” left out, “post-wounding. The wounds were photographed after wounding, prior to re-injection on day 1 and on day of harvest. The scars were assessed using standard macroscopic scar assessment using a visual analogue scale (VAS) consisting of a 0-10 cm line representing a scale, from left to right, of 0 (corresponding to normal skin) to 10 (indicative of a bad scar). For microscopic assessment the scars were excised from the experimental rats (incorporating a small amount of surrounding normal tissue) and fixed in 10% (v/v) buffered formal saline. The fixed tissue was then processed for wax histology, stained using Masson's trichrome, and scarring assessed using a microscopic visual analogue scale (VAS).” for “post-wounding.”

NR4A1 = NR4A1 (Homo sapiens, UniProt P22736); settings: cited from earlier work
excisional wounds = assay: Excisional wound healing model, 5 mm punch biopsy wounds harvested day 3; assay type: in vivo, Sprague Dawley rats
Description: One hundred microlitres of 6-mercaptopurine at 1 ng, 10 ng or 1000 ng in phosphate buffered saline (PBS, pH 7.2; GIBCO BRL, Cat. #20012-019) containing 5% ethanol was injected intradermally at the wound sites. […] Separate groups of rats used as naïve controls and diluent controls. Naïve control animals were wounded without treatment, whilst diluent control animals were injected with 100 μl of the PBS/ethanol mixture prior to wounding. […] For microscopic assessment the scars were excised from the experimental rats (incorporating a small amount of surrounding normal tissue) and fixed in 10% (v/v) buffered formal saline. […]

[2] = day 3, measured mid-way through wound depth, 1, 10 or 1000 ng/100 μl intradermal
[3] = day 3, measured at top of wound, 1, 10 or 1000 ng/100 μl intradermal

Chain of NR4A3 (Q92570 whole entry): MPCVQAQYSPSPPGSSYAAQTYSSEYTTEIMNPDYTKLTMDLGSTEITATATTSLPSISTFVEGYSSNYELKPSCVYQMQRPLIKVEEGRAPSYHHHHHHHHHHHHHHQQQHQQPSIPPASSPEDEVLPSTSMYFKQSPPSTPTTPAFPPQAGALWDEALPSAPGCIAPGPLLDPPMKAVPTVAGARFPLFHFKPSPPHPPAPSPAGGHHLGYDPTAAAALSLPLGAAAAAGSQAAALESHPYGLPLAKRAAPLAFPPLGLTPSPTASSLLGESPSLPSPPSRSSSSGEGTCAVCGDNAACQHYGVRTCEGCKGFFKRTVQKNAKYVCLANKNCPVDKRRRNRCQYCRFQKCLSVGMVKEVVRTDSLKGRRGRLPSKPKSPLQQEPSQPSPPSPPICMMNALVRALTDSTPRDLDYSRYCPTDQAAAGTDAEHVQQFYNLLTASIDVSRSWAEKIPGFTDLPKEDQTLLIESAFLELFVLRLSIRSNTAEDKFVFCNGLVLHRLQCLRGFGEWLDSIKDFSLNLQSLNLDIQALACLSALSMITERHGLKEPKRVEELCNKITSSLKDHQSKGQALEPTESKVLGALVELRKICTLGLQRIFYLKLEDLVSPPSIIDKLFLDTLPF
Chain of NR4A1 (P22736 whole entry): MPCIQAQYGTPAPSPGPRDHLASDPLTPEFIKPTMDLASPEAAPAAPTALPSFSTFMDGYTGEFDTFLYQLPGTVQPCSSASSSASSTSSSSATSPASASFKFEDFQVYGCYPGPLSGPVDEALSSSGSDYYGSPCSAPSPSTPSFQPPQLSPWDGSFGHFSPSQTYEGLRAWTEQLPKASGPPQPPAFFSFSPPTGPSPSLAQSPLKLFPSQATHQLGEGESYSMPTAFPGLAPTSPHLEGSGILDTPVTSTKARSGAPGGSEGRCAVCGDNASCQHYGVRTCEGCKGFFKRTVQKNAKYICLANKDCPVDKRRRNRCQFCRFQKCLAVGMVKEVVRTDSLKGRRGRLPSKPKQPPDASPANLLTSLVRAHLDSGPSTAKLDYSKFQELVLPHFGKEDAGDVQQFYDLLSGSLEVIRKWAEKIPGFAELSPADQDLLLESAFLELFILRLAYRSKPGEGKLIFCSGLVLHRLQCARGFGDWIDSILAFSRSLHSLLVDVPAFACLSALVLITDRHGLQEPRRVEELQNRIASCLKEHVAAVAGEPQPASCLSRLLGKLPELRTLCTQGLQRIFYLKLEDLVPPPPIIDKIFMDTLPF
Chain of NR4A2 (P43354 whole entry): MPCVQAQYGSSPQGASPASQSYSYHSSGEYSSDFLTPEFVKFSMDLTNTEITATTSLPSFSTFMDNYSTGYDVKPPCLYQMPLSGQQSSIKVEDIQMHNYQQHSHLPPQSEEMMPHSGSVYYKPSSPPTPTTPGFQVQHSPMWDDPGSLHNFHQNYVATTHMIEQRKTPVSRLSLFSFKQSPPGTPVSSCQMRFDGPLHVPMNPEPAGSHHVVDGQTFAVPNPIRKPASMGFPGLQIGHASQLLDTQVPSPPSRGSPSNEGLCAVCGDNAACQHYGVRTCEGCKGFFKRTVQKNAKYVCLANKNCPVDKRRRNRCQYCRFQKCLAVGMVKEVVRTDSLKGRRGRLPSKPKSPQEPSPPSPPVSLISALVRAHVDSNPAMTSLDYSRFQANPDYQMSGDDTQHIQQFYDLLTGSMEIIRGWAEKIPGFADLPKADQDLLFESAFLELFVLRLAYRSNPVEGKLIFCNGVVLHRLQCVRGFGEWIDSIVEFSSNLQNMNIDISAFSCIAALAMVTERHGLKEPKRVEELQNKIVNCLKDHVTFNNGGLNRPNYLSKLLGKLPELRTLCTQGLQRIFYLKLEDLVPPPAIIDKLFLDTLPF

Sc1ncnc2nc[nH]c12 [6-mercaptopurine]
width of incisional wounds compared to controls (incisional wounds; [2]): not increased
width of incisional wounds compared to naïve controls (incisional wounds; [2]): consistently lower
re-epithelialisation of incisional wounds (incisional wounds; three days after wounding, comparable with control wounds): fully re-epithelialised
agonist activity (NR4A3): agonist
agonist activity (NR4A2): agonist
macroscopic appearance of scars (macroscopic VAS) ([1]; 1 ng/100 μl intradermal): improved
microscopic appearance of scars (microscopic VAS) ([1]; 1 ng/100 μl intradermal): significantly improved
inhibition of scarring, microscopic appearance ([1]; 1 ng/100 μl, compared to both diluent and control wounds (p<0.01)): significantly inhibited scarring
inhibition of scarring, macroscopic appearance of treated wounds ([1]; 1 ng/100 μl, p<0.05 as compared to diluent controls): statistically significant inhibition of scarring
macroscopic appearance of scars (macroscopic VAS) ([1]; 10 ng/100 μl intradermal): improved
microscopic appearance of scars (microscopic VAS) ([1]; 10 ng/100 μl intradermal): significantly improved
inhibition of scarring, microscopic appearance ([1]; 10 ng/100 μl, compared to diluent and naïve controls (p<0.05)): significantly inhibited scarring
macroscopic appearance of scars (macroscopic VAS) ([1]; 1000 ng/100 μl intradermal): improved
microscopic appearance of scars (microscopic VAS) ([1]; 1000 ng/100 μl intradermal): significantly improved
inhibition of scarring, microscopic appearance ([1]; 1000 ng/100 μl, compared to diluent controls (p<0.05)): significantly inhibited scarring
inhibition of scarring, macroscopic appearance of treated wounds ([1]; 1000 ng/100 μl, p<0.05 as compared to both diluent and naïve controls): statistically significant inhibition of scarring
agonist activity (NR4A1): agonist
width of excisional wounds lower than naïve controls, significance (excisional wounds; 1 ng/100 μl, day 3, p<0.01 versus naïve control only (FIG. 5)): significantly so
width of excisional wounds compared to controls (excisional wounds; [3]): not increased
width of excisional wounds compared to naïve controls (excisional wounds; [3]): consistently lower
percentage re-epithelialisation of excisional wounds (excisional wounds; three days after excision, vs diluent control and naïve control): trend towards increased re-epithelialisation
